Data from the METLIN SMRT retention time set (Domingo-Almenara et al. 2019).

Test: gradient 5% acetonitrile 3 min, to 50% in 2 min, to 85% in 15 min, held 3 min, 100 µL/min
Details: column: Zorbax Extend-C18 2.1 x 50 mm; eluents: water / acetonitrile, 0.1% formic acid
Outline: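 Over 3 months, pure standards in mixtures of ~100 molecules were run by HPLC coupled to a quadrupole time-of-flight mass spectrometer in positive and negative ionization mode. The column was a Zorbax Extend-C18 (2.1 × 50 mm, 1.8 μm) at 100 μL/min, eluted with water and acetonitrile each holding 0.1% formic acid, with 40 μL dead and 900 μL dwell volumes. Retention time was determined from adduct peaks chosen by software and checked manually.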

| Structure (SMILES) | RP-LC retention time [s] |
| --- | --- |
| COc1cc(Cc2nc(-c3cccc(-c4ccnn4C)c3)no2)cc(OC)c1 | 904 |
| CC(C)OCCCNC(=O)CN1c2ccc(Br)cc2-c2ccccc2S1(=O)=O | 961 |
| COc1cccc(-c2cc3c(=O)n(Cc4nc(-c5cccc(Br)c5)no4)ccn3n2)c1 | 1080 |
| Cc1c(Cl)cccc1Nc1c(-c2ccc(O)cc2)nc2ncccn12 | 705 |
| CC(C)N1C(=O)Cc2ccccc2C1C(=O)NCc1ccccc1Br (stereo not given) | 825 |
| CCn1cc(C(=O)NC2CCCC2)c2nn(-c3ccccc3)c(=O)c-2c1 | 851 |
| COc1ccc(-n2c(=O)n(C)c(=O)c3cc(C(=O)Nc4ccccc4C(N)=O)cnc32)cc1 | 787 |
| CC(C)CCNC(=O)c1ccc2ncnc(N3CCCC3)c2c1 | 635 |
| C=CCNc1nnc(SCC(=O)N2CCC(C(N)=O)CC2)s1 | 572 |
| COc1cc(-c2ccc(SCC(=O)c3ccc(C)cc3)nn2)cc(OC)c1OC | 949 |
| CCc1nn2c(CNS(=O)(=O)c3ccc(F)cc3F)c(-c3ccccc3)nc2s1 | 942 |
| Cc1ccc(C)c(N2CCN(C(=O)c3ccc4c(c3)CCN4C(=O)C3CC3)CC2)c1 | 1070 |
| CCCNC(=O)c1cc2sc(CC)cc2n1C | 951 |
| Cc1cccc(-c2ncccc2CNS(=O)(=O)c2ccccc2Cl)c1 | 732 |
| CCn1cc(-c2nc(CC(=O)NCc3ccc(Cl)cc3)cs2)c2cccnc21 | 904 |
| CCc1ccc(CNC(=O)C2CCN(Cc3cn(CC)c4ccc(Cl)cc34)CC2)cc1 | 825 |
| COc1ccc(N2CC(NC(=O)NCCC3=CCCCC3)CC2=O)cc1 (stereo not given) | 731 |
| Cc1cc(C)cc(C(=O)Nc2ccc3c(c2)Sc2ncccc2C(=O)N3C(C)C)c1 | 1030 |
| CCOCCCNC(=O)Nc1ccc2nc3n(c(=O)c2c1)CCCC3 | 563 |
| Cc1cc(OC(C)C(=O)N[C@H](C(=O)O)c2ccccc2)c2c3c(c(=O)oc2c1)CCC3 (stereo not given in full) | 843 |
| Cc1ccccc1CC(=O)Nc1cc(-c2nnc(C3CC3)o2)sc1C | 724 |
| CC(=O)N1CCc2cc(-c3ccc(C(=O)N4CCN(Cc5ccc6c(c5)OCO6)CC4)cc3)ccc21 | 647 |
| O=C(CN1C(=O)CCc2cc(Br)ccc21)N1CCN(c2ccccn2)CC1 | 621 |

| Structure (SMILES) | RP-LC retention time [s] |
| --- | --- |
| COc1cc(CNC(=O)C2CCN(Cc3cn(C)c4ccccc34)CC2)cc(OC)c1 | 674 |
| Cc1ccc2c(C(=O)N3CCCCC3)cc(NC(=O)C3CCC3)cc2n1 | 632 |
| CCCc1c(OCCCOc2ccc(OCC(=O)O)cc2)ccc(C(C)=O)c1O | 1150 |
| O=C(Cn1ccc2sccc2c1=O)Nc1cccc(F)c1 | 746 |
| CCc1ccc(-c2nc(-c3ccc4c(c3)N(CC)C(=O)CO4)no2)cc1 | 1320 |
| O=C(CSc1nccn1Cc1ccc2c(c1)OCO2)Nc1ccccc1F | 621 |
| O=C(NCc1ccc(S(=O)(=O)c2cc(F)cc(F)c2)cc1)c1ccc2nccn2c1 | 724 |
| O[Si](CCCN1CCCCC1)(c1ccc(F)cc1)C1CCCCC1 (stereo not given) | 865 |
| O=C(NC1CC1)c1ccc(N2CCC(NCc3cc(F)ccc3O)C2)nc1 (stereo not given) | 544 |
| Cn1ccnc1C(=O)N1CCc2nn(CC3CC3)c(=O)n2CC1 | 565 |
| COc1ccc(CN2CCC3(CC2)CC(O)CCO3)c(OC)c1 (stereo not given) | 581 |
| O=C(CN1C(=O)CCCc2cc(S(=O)(=O)N3CCCCC3)ccc21)N1CCCCC1 | 819 |
| O=C(NCc1ccc(Cl)cc1)NCC1(CO)CC1 | 654 |
| O=C(N1CC(Oc2ccccc2-c2nc(C3CC3)no2)C1)C1(c2ccccc2)CC1 | 665 |
| O=c1ccn(-c2ccc(Cl)cc2)nc1-c1nc(-c2cccc(F)c2)no1 | 954 |
| Cn1nc(-c2cccc(NC(=O)C3c4ccccc4Oc4ccccc43)c2)ccc1=O | 814 |
| COCCC(=O)NC1CCN(C2=NS(=O)(=O)C(c3ccc(C)c(C)c3)=C2C)CC1 | 722 |
| CCc1ccc(NC(=O)c2c(O)c3cccnc3n(-c3ccc(F)cc3)c2=O)cc1 | 1230 |
| CCOC(=O)N1CCN(C(=O)CSc2nnc(C3COc4ccccc4O3)o2)CC1 (stereo not given) | 762 |
| CC(Oc1cccc(Cl)c1)C(=O)NCC1CCOCC1 (stereo not given) | 779 |
| Cc1cc(F)ccc1NC(=O)c1sc(-c2cn(C)c3ncccc23)nc1C | 899 |
| COC(=O)CSC1=C(C#N)C(c2ccsc2)CC(=O)N1 (stereo not given) | 707 |
| CS(=O)(=O)c1ccc(C(=O)Nc2cccc(Cl)c2Cl)cc1 | 791 |

| Structure (SMILES) | RP-LC retention time [s] |
| --- | --- |
| Cn1ncc2c3ccccc3n(CCCC(=O)NCc3cccs3)c2c1=O | 817 |
| COc1ccccc1OCCNC(=O)c1ccc2[nH]c3c(c2c1)CN(C(C)=O)CC3 | 680 |
| CC1(C(=O)NCc2ccc(F)cc2)CCN(S(=O)(=O)c2ccc(Br)cc2)CC1 | 1000 |
| Cc1sc(C)c(S(=O)(=O)Nc2cccc(F)c2)c1-c1cc(C(F)(F)F)on1 | 1140 |
| Cc1cc(C)cc(NC(=O)Cn2c(C(C)C)nc3c(c2=O)CCN(Cc2ccccc2)C3)c1 | 759 |
| Cc1ccc(Cl)cc1-n1ncc2c(=O)n(Cc3nc(-c4cccc(C(F)(F)F)c4)no3)cnc21 | 1180 |
| CCc1cccc(C)c1Nc1c(-c2ccccc2)nc2cnccn12 | 947 |
| CCNC(=O)c1nc(C(=O)NCc2ccccc2F)cs1 | 765 |
| CCn1c(=O)n(CC(=O)N(C)C2CCCCC2)c(=O)c2cnc(-c3ccccc3)nc21 | 1130 |
| COc1ccccc1N1CCN(c2cc(SCC(=O)NCc3ccc(SC)cc3)ncn2)CC1 | 929 |
| COc1ccc(CN2C(=O)c3ccccc3C2C(=O)NCC2CCCO2)c(OC)c1 (stereo not given) | 695 |
| Cc1ccccc1-c1nnc(COc2ccc(NC(=O)c3n[nH]c4c3CCCC4)cc2)o1 | 975 |
| Cc1ccn2c(NC(=O)CC(C)(C)C)c(-c3ccc(F)cc3)nc2c1 | 669 |
| Cc1cc(OCC(=O)NCc2ccco2)nc(-c2ccc(Cl)cc2)n1 | 1000 |
| Clc1ccc(Cl)c(-c2ccc(CNCCN3CCNCC3)o2)c1 | 603 |
| COC(=O)c1ccccc1S(=O)(=O)N1CCc2c(c(-c3nnc(-c4ccc(F)cc4)o3)nn2C)C1 | 915 |
| Cc1noc(C2CN(C(=O)Nc3cccc(Cl)c3)CC23CCOCC3)n1 (stereo not given) | 786 |
| CC(C)c1ccc(NC(=O)c2cc3sc(Cl)cc3n2C)cc1 | 1300 |
| CCc1nnc(NC(=O)c2ccoc2COc2ccc(C)cc2)s1 | 803 |
| O=c1c2nc(-c3ccc(F)cc3F)cn2ccn1-c1cccc(Cl)c1 | 949 |
| Cn1nccc1-c1cccc(-c2noc(-c3ccc(F)c(F)c3)n2)c1 | 1170 |
| Cc1ccc2c(c1)c1c3n2CCN(c2nc(-c4ccccc4)cs2)C3CCC1 (stereo not given) | 901 |
| CCOC(=O)c1c(C)n(C)c2ccc(OCCN(C)C)cc12 | 632 |

| Structure (SMILES) | RP-LC retention time [s] |
| --- | --- |
| CCc1cccc(C)c1Nc1c(-c2ccccc2)nc2nc(C)cc(C)n12 | 816 |
| Cn1nc(N2CCCC(NC(=O)c3cccs3)C2)ccc1=O (stereo not given) | 627 |
| COc1ccccc1NC(=O)Cn1c(-c2nc(C(C)C)no2)cccc1=O | 927 |
| CC(C)c1ccc2occ(CC(=O)N(Cc3ccc(N(C)C)cc3)C3CCS(=O)(=O)C3)c2c1 (stereo not given) | 936 |
| COc1ccc(C(=O)Nc2nc(-c3ccc4c(c3)N(C)C(=O)C(C)O4)cs2)cc1 (stereo not given) | 984 |
| COc1ccc(-c2nnc(Cc3nc(-c4ccccc4Cl)no3)o2)cc1 | 973 |
| CCN1CCC(N(Cc2ccc3c(c2)OCO3)C(=O)Nc2ccccc2)CC1 | 650 |
| COc1ccc(-c2nnc(-c3ccc(C)c(S(=O)(=O)N(C)C)c3)o2)cc1OC | 878 |
| CCN1CCC(N(Cc2cccs2)C(=O)Nc2ccc(OC)c(OC)c2)CC1 | 604 |
| Cc1noc(-c2cccc(OC3CN(C(=O)Cc4ccsc4)C3)c2)n1 | 857 |
| COC(=O)c1cccc(C(=O)N2CCN(c3ccccc3F)CC2)n1 | 777 |
| COc1ccc(S(=O)(=O)CC(=O)Nc2nnc(-c3cc(C)oc3C)o2)cc1 | 721 |
| CCc1ccccc1NC(=O)N1CC(Cc2nncn2C(C)C)C1 | 646 |
| Cc1ccc(NC(=O)CC2COc3ccccc3NC2=O)cc1F (stereo not given) | 769 |
| CCCNC(=O)c1nc(-c2ccc3c(c2)OCC(=O)N3CC)no1 | 821 |
| COc1cccc(CNC(=O)C2CCc3nc(N4CCCCC4)ncc3C2)c1 (stereo not given) | 665 |
| Cc1cc2[nH]c(C(=O)Nc3cc(F)ccc3F)c(CN3CCOCC3)c2s1 | 730 |
| CC(=O)Nc1cccc(N2CC(C(=O)Nc3ccc(Br)c(C)c3)CC2=O)c1 (stereo not given) | 703 |
| CCC(=O)N1CCc2cc(N3CC(C(=O)NCc4cccc(Cl)c4)CC3=O)ccc21 (stereo not given) | 776 |
| CC1(C(=O)N2CC(F)(F)C[C@H]2c2nc(-c3ccncc3)no2)CC1 | 735 |
| CCCn1c(C2CCN(C(=O)c3sccc3C)C2)nc2cccnc21 (stereo not given) | 716 |
